molecular target: T1, hROMK (hKir1.1) (Homo sapiens, UniProt P48048); assay: Thallium Flux Assay (ROMK channel functional thallium flux, FLIPR-Tetra); assay type: cell-based; settings: HEK293 cells stably expressing hROMK (hKir1.1); 30 min compound incubation
T1 construct: expressed in transfected cells
T1 sequence (P48048 1-391): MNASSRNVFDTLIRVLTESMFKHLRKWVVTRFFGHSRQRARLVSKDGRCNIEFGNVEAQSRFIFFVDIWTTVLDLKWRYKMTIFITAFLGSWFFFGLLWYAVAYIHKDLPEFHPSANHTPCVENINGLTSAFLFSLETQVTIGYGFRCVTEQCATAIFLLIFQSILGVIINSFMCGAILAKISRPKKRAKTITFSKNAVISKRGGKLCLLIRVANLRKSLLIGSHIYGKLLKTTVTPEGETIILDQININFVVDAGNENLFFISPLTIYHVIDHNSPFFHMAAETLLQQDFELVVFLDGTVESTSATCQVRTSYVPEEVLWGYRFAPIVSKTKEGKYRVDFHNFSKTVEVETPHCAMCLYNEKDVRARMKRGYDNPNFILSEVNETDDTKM
Protocol: The following Thallium Flux Assay was performed on each of the final product compounds in the Examples.
Cell Culture Conditions—HEK293 cells stably expressing hROMK (hKir1.1) were grown at 37° C. in a 10% CO2 humidified incubator in complete growth media: Dulbecco's Modified Eagle Medium supplemented with non-essential amino acids, Penicillin/Streptomycin/Glutamine, G418 and FBS. At >80% confluency, aspirate the media from the flask and rinse with 10 mL Calcium/Magnesium-free PBS. Add 5 mL of 1× trypsin (prepared in Ca/Mg Free PBS) to T-225 flask and return flask to 37° C./CO2 incubator for 2-3 minutes. To dislodge the cell, gently bang the side of the flask with your hand. Triturate the cells completely and then transfer the cells to 25 mL complete media. Centrifuge at 1,500 rpm for 6 min followed by resuspension in complete growth media and determine cell concentration. For typical re-seeding, 4E6 cells/T-225 flask will attain >80% confluency in 4 days. Under ideal growth conditions and appropriate tissue culture practices, this cell line is stable for 40-45 passages. FluxOR Kit Components (Invitrogen F10017) • FluxOR™ Reagent (Component A) • FluxOR™ Assay Buffer (Component B)—10× Concentrate • PowerLoad™ Concentrate (Component C)—100× Concentrate • Probenecid (Component D)—Lyophilized sample is kept at −20° C. Water soluble, 100× after solubilization in 1 mL water. Store at 4° C. • FluxOR™ Chloride-free Buffer (Component E)—5× Concentrate • Potassium sulfate (K2SO4) Concentrate (Component F)—125 mM in water. Store at 4° C. • Thallium sulfate (Tl2SO4) Concentrate (Component G)—50 mM in water. Store at 4° C. • DMSO (dimethyl sulfoxide, Component H)—1 mL (100%) Reagent Preparation: FluxOR Working Solutions • 1000× FluxOR™ Reagent: Reconstitute a vial of component A in 100 μl DMSO; Mix well; Store 10 μl aliquots at −20° C. • 1× FluxOR™ Assay Buffer: Dilute Component B 10-fold with water; Adjust pH to 7.4 with Hepes/NaOH; Filter and store at 4° C. • Probenecid/Assay Buffer: 100 mL of 1× FluxOR™ Assay Buffer; 1 mL of reconstituted component D; Store at 4° C. • Loading Buffer (per microplate): 10 μl 1000× FluxOR™ Reagent; 100 μl component C; 10 mL Probenecid/Assay Buffer • Compound Buffer (per microplate): 20 mL Probenecid/Assay Buffer; 0.3 mM ouabain (10 mM ouabain in water can be stored in amber bottle/aluminum foil at room temperature); Test compound • 1× FluxOR™ Chloride-Free Buffer: Prepare 1× working solution in water. Can be stored at room temperature • Stimulant Buffer (prepared at 5× final concentration in 1× FluxOR™ Chloride-Free Buffer): 7.5 mM Thallium sulfate and 0.75 mM Potassium sulfate (to give a final assay concentration of 3 mM Thallium/0.3 mM Potassium). Store at 4° C. when not in use. If kept sterile, this solution is good for months. Assay Protocol—The ROMK channel functional thallium flux assay is performed in 384 wells, using the FLIPR-Tetra instrument. HEK-hKir1.1 cells are seeded in Poly-D-Lysine microplates and kept in a 37° C.-10% CO2 incubator overnight. On the day of the experiment, the growth media is replaced with the FluxOR™ reagent loading buffer and incubated, protected from light, at ambient temperature (23-25° C.) for 90 min. The loading buffer is replaced with assay buffer±test compound followed by 30 min incubation at ambient temperature, where the Thallium/Potassium stimulant is added to the microplate. Step Protocol • 1. Seed HEK-hKir1.1 cells (50 μl at 20,000 cells/well) in 384-well PDL coated Microplates • 2. Allow cells to adhere overnight in humidified 37° C./10% CO2 incubator • 3. Completely remove cell growth media from microplate and replace with 25 μl loading buffer • 4. Incubate Microplate at room temperature, protected form light, for 90 min • 5. Remove loading buffer and replace with 25 μl 1× Assay Buffer±test compound. • 6. Incubate microplate at room temperature, protected from light, for 30 min • 7. At FLIPR-Tetra 384: Add stimulant (Thallium/Potassium) solution to microplate and monitor fluorescence. […]

Row | SMILES | IC50 [nM]
1 | CC1=C(N2CCC3(CCN(C[C@H](O)c4ccc(-n5cnnn5)nc4)CC3)C2=O)COC1=O [Example 18, 8-{(2R)-2-hydroxy-2-[6-(1H-tetrazol-1-yl)pyridin-3-yl]ethyl}-2-(4-methyl-5-oxo-2,5-dihydrofuran-3-yl)-1-oxo-2-aza-8-azoniaspiro[4.5]decane] | 10
2 | CC1(O)CC2(CCN(C[C@H](O)c3ccc(-n4cnnn4)nc3)CC2)C(=O)N1C1=CC(=O)OC1 (stereo partly drawn) [Example 157, 3-hydroxy-8-{(2R)-2-hydroxy-2-[6-(1H-tetrazol-1-yl)pyridin-3-yl]ethyl}-3-methyl-1-oxo-2-(5-oxo-2,5-dihydrofuran-3-yl)-2-aza-8-azoniaspiro[4.5]decane] | 70
3 | CC1=C(N2C=CC3(CCN(C[C@@H](O)c4nnc(-n5cnnn5)cc4C)CC3)C2=O)COC1=O [Example 153, 8-{(2R)-2-hydroxy-2-[4-methyl-6-(1H-tetrazol-1-yl)pyridazin-3-yl]ethyl}-2-(4-methyl-5-oxo-2,5-dihydrofuran-3-yl)-1-oxo-2-aza-8-azoniaspiro[4.5]dec-3-ene] | 40
4 | CC1=C(N2CCC3(CC4CCC(C3)N4C[C@@H](O)c3nnc(-n4cnnn4)c(C)c3C)C2=O)COC1=O (stereo partly drawn) [Example 51, (1R,5R)-8-{(2R)-2-[4,5-dimethyl-6-(1H-tetrazol-1-yl)pyridazin-3-yl]-2-hydroxyethyl}-1′-(4-methyl-5-oxo-2,5-dihydrofuran-3-yl)-2′-oxospiro[8-azoniabicyclo[3.2.1]octane-3,3′-pyrrolidine]] | 30
5 | COC1CN(C[C@H](O)c2ccc(-n3cnnn3)nc2)CCC12CCN(C1=C(C)C(=O)OC1)C2=O (single isomer, unassigned) [Example 170] | 40
6 | CC1=C(N2C(=O)C3(CCN(C[C@@H](O)c4ccc(-n5cnnn5)nc4C)CC3)CC2C)COC1=O (mixture of isomers) [Example 59, 8-{(2S)-2-hydroxy-2-[2-methyl-6-(1H-tetrazol-1-yl)pyridin-3-yl]ethyl}-3-methyl-2-(4-methyl-5-oxo-2,5-dihydrofuran-3-yl)-1-oxo-2-aza-8-azoniaspiro[4.5]decane] | 50
7 | CC1=C(N2C(=O)C3(CCN(C[C@@H](O)c4ccc(-n5cnnn5)nc4)CC3)CC2C)COC1=O (single isomer, unassigned) [Example 64] | 50
8 | CC1=C(N2CCC3(CCN(C[C@H](O)c4ccc(-n5cnnn5)cc4)CC3)C2=O)COC1=O [Example 34, 8-{(2R)-2-hydroxy-2-[4-(1H-tetrazol-1-yl)phenyl]ethyl}-2-(4-methyl-5-oxo-2,5-dihydrofuran-3-yl)-1-oxo-2-aza-8-azoniaspiro[4.5]decane] | 10
9 | COC1CN(C[C@H](O)c2ccc(-n3cnnn3)nc2)CCC12CCN(C1=C(C)C(=O)OC1)C2=O (single isomer, unassigned) [Example 176] | 90
10 | Cc1nc(-n2cnnn2)cnc1C(O)CN1CCC2(CC1)C[C@H](C)N(C1=CC(=O)OC1)C2=O (mixture of isomers) [Example 168, (3S)-8-{2-hydroxy-2-[3-methyl-5-(1H-tetrazol-1-yl)pyrazin-2-yl]ethyl}-3-methyl-2-(5-oxo-2,5-dihydrofuran-3-yl)-2,8-diazaspiro[4.5]decan-1-one] | 10
11 | O=C1C=C(N2CCC3(CCN(C[C@@H](O)c4ccc(-n5cnnn5)nc4)CC3)C2=O)CO1 (single isomer, unassigned) [Example 2] | 50
12 | O=C1C=C(N2C=CC3(CCN(C[C@H](O)c4ccc(-n5cnnn5)nc4)CC3)C2=O)CO1 [Example 151, 8-{(2R)-2-hydroxy-2-[6-(1H-tetrazol-1-yl)pyridin-3-yl]ethyl}-1-oxo-2-(5-oxo-2,5-dihydrofuran-3-yl)-2-aza-8-azoniaspiro[4.5]dec-3-ene] | 30
13 | CC1=C(N2CCC3(CCN(C[C@@H](O)c4cncc(-n5cnnn5)c4)CC3)C2=O)COC1=O [Example 132, 8-{(2S)-2-hydroxy-2-[5-(1H-tetrazol-1-yl)pyridin-3-yl]ethyl}-2-(4-methyl-5-oxo-2,5-dihydrofuran-3-yl)-1-oxo-2-aza-8-azoniaspiro[4.5]decane] | 640
14 | COC1CN(C[C@H](O)c2cnc(-n3cnnn3)cn2)CCC12CCN(C1=C(C)C(=O)OC1)C2=O (single isomer, unassigned) [Example 172] | 180

Now from value to compound:

Row | IC50 [nM] | SMILES
15 | 30 | O=C1C=C(N2C(=O)C3(CCN(C[C@H](O)c4cnc(-n5cnnn5)cn4)CC3)CC2CF)CO1 (single isomer, unassigned) [Example 205]
16 | 50 | CC1(C)CC2(CCN(C[C@H](O)c3ccc(-n4cnnn4)nn3)CC2)C(=O)N1C1=CC(=O)OC1 [Example 189, 8-{(2S)-2-hydroxy-2-[6-(1H-tetrazol-1-yl)pyridazin-3-yl]ethyl}-3,3-dimethyl-1-oxo-2-(5-oxo-2,5-dihydrofuran-3-yl)-2-aza-8-azoniaspiro[4.5]decane]
17 | 120 | O=C1C=C(N2C(=O)C3(CCN(C[C@H](O)c4cnc(-n5cnnn5)cn4)CC3)CC2C2CC2)CO1 (mixture of isomers) [Example 212, 3-cyclopropyl-8-{(2S)-2-hydroxy-2-[5-(1H-tetrazol-1-yl)pyrazin-2-yl]ethyl}-2-(5-oxo-2,5-dihydrofuran-3-yl)-2,8-diazaspiro[4.5]decan-1-one]
18 | 20 | Cc1nc(-n2cnnn2)cnc1CCN1CCC2(CC1)CCN(C1=CC(=O)OC1)C2=O [Example 269, 8-{2-[3-methyl-5-(1H-tetrazol-1-yl)pyrazin-2-yl]ethyl}-2-(5-oxo-2,5-dihydrofuran-3-yl)-2,8-diazaspiro[4.5]decan-1-one]
19 | 50 | COC1CN(C2=CC(=O)OC2)C(=O)C12CCN(C[C@H](O)c1ccc(-n3cnnn3)nc1)CC2 (mixture of isomers) [Example 206, 8-((R)-2-(6-(1H-tetrazol-1-yl)pyridin-3-yl)-2-hydroxyethyl)-4-methoxy-2-(5-oxo-2,5-dihydrofuran-3-yl)-2,8-diazaspiro[4.5]decan-1-one]
20 | 10 | CC1=C(N2CCC3(CCN(C(C)(C)C(O)c4ccc(-n5cnnn5)nc4)CC3)C2=O)COC1=O (single isomer, unassigned) [Example 298]
21 | 30 | CC1=C(N2CCC3(CCN(C[C@H](F)c4ccc(-n5cnnn5)nn4)CC3)C2=O)COC1=O [Example 278, 8-{(2S)-2-fluoro-2-[6-(1H-tetrazol-1-yl)pyridazin-3-yl]ethyl}-2-(4-methyl-5-oxo-2,5-dihydrofuran-3-yl)-1-oxo-2-aza-8-azoniaspiro[4.5]decane]
22 | 4 | Cc1cc(-n2cnnn2)nnc1CCN1CCC2(CC1)C[C@H](C)N(C1=CC(=O)OC1)C2=O [Example 262, (3S)-3-methyl-8-{2-[4-methyl-6-(1H-tetrazol-1-yl)pyridazin-3-yl]ethyl}-2-(5-oxo-2,5-dihydrofuran-3-yl)-2,8-diazaspiro[4.5]decan-1-one]

Reference: patent US9765074B2, “Inhibitors of the renal outer medullary potassium channel” (Merck Sharp & Dohme Corp., priority 2013, dated 2017)
